Laboratory results taken from patent US11130740B2, “Substituted 2,3-dihydro-1H-indene analogs and methods using same” (Arbutus Biopharma Corporation, priority 2017, dated 2021).

The molecules below were run against PD-L1 His protein / PD-1 Fc protein (Homo sapiens (Human), UniProt Q9NZQ7) (assay: HTRF assay (PD-1/PD-L1 interaction)). Conditions: PD-L1 His 6 nM, PD-1 Fc 6 nM; inhibitors diluted 3-fold from 20 μM.
Format: binding
Experimental: PD-L1 His protein was prepared and added at the final concentration of 6 nM in the White opaque 384 well plate (Corning cat #3824BC). PD-L1 small molecule inhibitors were diluted by 3-fold starting from 20 μM and a final concentration of 0.001 μM and added to the well. PD-1 Fc protein was added at the final concentration of 6 nM. PD-L1 His protein, PD-L1 small molecule inhibitors, and PD1 Fc proteins were added to the well in this order, with each 5 μl volume, and were incubated for 15 minutes at room temperature. PAb anti-Human IgG-XL665 (Cisbio, cat #61HFCXLA) and Mab anti-6HIS Tb cryptate Gold (Cisbio, cat #61HI2TLA) were mixed at 6.7 nM and 0.35 nM respectively, and total 5 μl volume of mixture was added to the well and incubated at room temperature for 1 hour. The plate was read using PerkinElmer Envision plate reader and data was analyzed by Prism 6 software.

PD-L1 His protein / PD-1 Fc protein, sequence (Q9NZQ7 19-238): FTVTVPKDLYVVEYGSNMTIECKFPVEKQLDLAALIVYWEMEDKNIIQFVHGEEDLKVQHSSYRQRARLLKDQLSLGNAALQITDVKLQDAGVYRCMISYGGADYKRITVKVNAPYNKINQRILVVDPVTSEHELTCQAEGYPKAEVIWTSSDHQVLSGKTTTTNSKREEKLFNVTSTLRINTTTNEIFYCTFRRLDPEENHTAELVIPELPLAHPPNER

Structure (SMILES) | IC50
CC(=O)NCCN[C@H]1c2ccc(OCc3cccc(-c4ccccc4)c3C)cc2C[C@@H]1O [Compound 10A_2, N-(2-(((1S,2S)-2-hydroxy-5-((2-methyl-[1,1′-biphenyl]-3-yl)methoxy)-2,3-dihydro-1H-inden-1-yl)amino)ethyl)acetamide] | 0.204 µM
CC(=O)NCCN[C@@H]1c2ccc(OCc3cccc(-c4ccccc4)c3C)cc2C[C@H]1O [Compound 10A_2_1, N-(2-(((1R,2R)-2-hydroxy-5-((2-methyl-[1,1′-biphenyl]-3-yl)methoxy)-2,3-dihydro-1H-inden-1-yl)amino)ethyl)acetamide] | 5 µM
CC(=O)NCCN[C@H]1c2ccc(OCc3cccc(-c4ccccc4)c3C)cc2C[C@@H]1O [Compound 10A_2_2, N-(2-(((1S,2S)-2-hydroxy-5-((2-methyl-[1,1′-biphenyl]-3-yl)methoxy)-2,3-dihydro-1H-inden-1-yl)amino)ethyl)acetamide] | 0.17 µM
CC(=O)NCCN[C@@H]1c2ccc(OCc3cccc(-c4ccccc4)c3C)cc2C[C@@H]1O [Compound 10A_l, N-(2-(((1R,2S)-2-hydroxy-5-((2-methyl-[1,1′-biphenyl]-3-yl)methoxy)-2,3-dihydro-1H-inden-1-yl)amino)ethyl)acetamide] | 1.08 µM
CC(=O)NCCN[C@H]1c2ccc(OCc3cccc(-c4ccccc4)c3C)cc2C[C@H]1O [Compound 10A_l_1, N-(2-(((1S,2R)-2-hydroxy-5-((2-methyl-[1,1′-biphenyl]-3-yl)methoxy)-2,3-dihydro-1H-inden-1-yl)amino)ethyl)acetamide] | 0.863 µM
CC(=O)NCCN[C@@H]1c2ccc(OCc3cccc(-c4ccccc4)c3C)cc2C[C@@H]1O [Compound 10A_l_2, N-(2-(((1R,2S)-2-hydroxy-5-((2-methyl-[1,1′-biphenyl]-3-yl)methoxy)-2,3-dihydro-1H-inden-1-yl)amino)ethyl)acetamide] | 5.09 µM
CC(=O)NCCN[C@@H]1c2ccc(OCc3cccc(-c4ccc5c(c4)OCCO5)c3C)cc2C[C@@H]1O [Compound 10B_1, N-(2-(((1R,2S)-5-((3-(2,3-dihydrobenzo[b][1,4]dioxin-6-yl)-2-methylbenzyl)oxy)-2-hydroxy-2,3-dihydro-1H-inden-1-yl)amino)ethyl)acetamide] | 3.14 µM
Cc1c(COc2ccc3c(c2)C[C@H](O)[C@H]3NCCS(C)(=O)=O)cccc1-c1ccccc1 [Compound 10C_2, (1S,2S)-5-((2-methyl-[1,1′-biphenyl]-3-yl)methoxy)-1-((2-(methylsulfonyl)ethyl)amino)-2,3-dihydro-1H-inden-2-ol] | > 20 µM
Cc1c(COc2ccc3c(c2)C[C@H](O)[C@@H]3NCCS(C)(=O)=O)cccc1-c1ccccc1 [Compound 10C_l, (1R,2S)-5-((2-methyl-[1,1′-biphenyl]-3-yl)methoxy)-1-((2-(methylsulfonyl)ethyl)amino)-2,3-dihydro-1H-inden-2-ol] | > 20 µM
Cc1c(COc2ccc3c(c2)C[C@H](O)C3NCCN2CCN(C)CC2)cccc1-c1ccccc1 (stereo partly drawn) [Compound 10D, (2S)-5-((2-methyl-[1,1′-biphenyl]-3-yl)methoxy)-1-((2-(4-methylpiperazin-1-yl)ethyl)amino)-2,3-dihydro-1H-inden-2-ol] | 5.15 µM
Cc1c(COc2ccc3c(c2)C[C@H](O)[C@@H]3NCCN2CCOCC2)cccc1-c1ccccc1 [Compound 10E_1, (1R,2S)-5-((2-methyl-[1,1′-biphenyl]-3-yl)methoxy)-1-((2-morpholinoethyl)amino)-2,3-dihydro-1H-inden-2-ol] | 7.78 µM
Cc1c(COc2ccc3c(c2)C[C@H](O)[C@H]3NCCN2CCOCC2)cccc1-c1ccccc1 [Compound 10E_2, (1S,2S)-5-((2-methyl-[1,1′-biphenyl]-3-yl)methoxy)-1-((2-morpholinoethyl)amino)-2,3-dihydro-1H-inden-2-ol] | 1.08 µM
Cc1c(COc2ccc3c(c2)C[C@H](O)[C@@H]3NCCO)cccc1-c1ccccc1 [Compound 10F_1, (1R,2S)-1-((2-hydroxyethyl)amino)-5-((2-methyl-[1,1′-biphenyl]-3-yl)methoxy)-2,3-dihydro-1H-inden-2-ol] | 1.32 µM
Cc1c(COc2ccc3c(c2)C[C@H](O)[C@H]3NCCO)cccc1-c1ccccc1 [Compound 10F_2, (1S,2S)-1-((2-hydroxyethyl)amino)-5-((2-methyl-[1,1′-biphenyl]-3-yl)methoxy)-2,3-dihydro-1H-inden-2-ol] | 1.17 µM
CC(=O)NCCNC1COc2cc(OCc3cccc(-c4ccccc4)c3C)ccc21 (stereo not drawn) [Compound 16A, N-(2-((6-((2-methyl-[1,1′-biphenyl]-3-yl)methoxy)-2,3-dihydrobenzofuran-3-yl)amino)ethyl)acetamide] | 3.6 µM
CC(=O)NCCNC1COc2cc(OCc3cccc(-c4ccc5c(c4)OCCO5)c3C)ccc21 (stereo not drawn) [Compound 16B, N-(2-((6-((3-(2,3-dihydrobenzo[b][1,4]dioxin-6-yl)-2-methylbenzyl)oxy)-2,3-dihydrobenzofuran-3-yl)amino)ethyl)acetamide] | 3.8 µM
CC(=O)NCCNC1CCc2cc(OCc3cccc(-c4ccccc4)c3C)ccc21 (stereo not drawn) [Compound 16C, N-(2-((5-((2-methyl-[1,1′-biphenyl]-3-yl)methoxy)-2,3-dihydro-1H-inden-1-yl)amino)ethyl)acetamide] | 0.379 µM
CC(=O)NCCNC1CCc2cc(OCc3cccc(-c4ccc5c(c4)OCCO5)c3C)ccc21 (stereo not drawn) [Compound 16D, N-(2-((5-((3-(2,3-dihydrobenzo[b][1,4]dioxin-6-yl)-2-methylbenzyl)oxy)-2,3-dihydro-1H-inden-1-yl)amino)ethyl)acetamide] | 0.323 µM
